System: α-synuclein cytotoxicity in M17-SYNwt cells
Assay: α-synuclein cytotoxicity assay: LDH leakage from paraquat-treated M17-SYNwt neuroblastoma cells;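 note: paraquat at 32 mM co-added with compound, 40 h exposure, LDH activity released into the culture medium measured, references are DMSO-only cells and paraquat plus DMSO cells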
Settings: Homo sapiens, Neuroblastoma cell; for Emax: read-out: % Inhib.

| SMILES | EC50 [µM] | Emax [%] |
| --- | --- | --- |
| O=C(NCCN1CCN(c2nc(Cc3ccc(F)cc3)ns2)CC1)c1cc(Cl)cc(Cl)c1 [compound 98, 3,5-dichloro-N-{2-[4-[3-(4-fluorobenzyl)-1,2,4-thiadiazol-5-yl]piperazin-1-yl]ethyl}benzamide] | 1.42 | 102 |
| Cc1ccc(Cc2nsc(N3CCN(C(=O)c4ccccc4)CC3)n2)cc1 [compound 158, 1-benzoyl-4-[3-(4-methylbenzyl)-1,2,4-thiadiazol-5-yl]piperazine] | 2.1 | 57 |
| O=C(c1cccc(F)c1)N1CCN(c2nc(Cc3ccc(Cl)cc3)ns2)CC1 [compound 157, 1-(3-fluorobenzoyl)-4-[3-(4-chlorobenzyl)-1,2,4-thiadiazol-5-yl]piperazine] | 1.7 | 70 |
| O=S(=O)(c1cc(Cl)ccc1Cl)N1CCN(c2nc(Cc3ccc(Cl)cc3)ns2)CC1 [compound 39, 1-[2,5-dichlorophenylsulfonyl]-4-[3-(4-chlorobenzyl)-1,2,4-thiadiazol-5-yl]piperazine] | 0.16 | 25 |
| COc1cccc(Cc2nsc(N3CCN(C(=O)c4ccc(C(F)(F)F)cc4)C(C)C3)n2)c1 (stereo not drawn) [compound 168, 1-(4-trifluoromethylbenzoyl)-4-[3-(3-methoxybenzyl)-1,2,4-thiadiazol-5-yl]-2-methylpiperazine] |  | 91 |
| COc1ccc(C(=O)N2CCN(c3nc(Cc4ccc(F)cc4)ns3)CC2C)cc1 (stereo not drawn) [compound 118, 1-(4-methoxybenzoyl)-4-[3-(4-fluorobenzyl)-1,2,4-thiadiazol-5-yl]-2-methylpiperazine] | 0.0911 | 64 |
| O=C(NCCN1CCN(c2nc(Cc3ccc(F)cc3)ns2)CC1)c1ccccc1 [compound 104, N-{2-[4-[3-(4-fluorobenzyl)-1,2,4-thiadiazol-5-yl]piperazin-1-yl]ethyl}benzamide] | 3.82 | 65 |
| Cc1ccc(Cc2nsc(N3CCN(C(=O)c4ccccc4F)CC3)n2)cc1 [compound 175, 1-(2-fluorobenzoyl)-4-[3-(4-methylbenzyl)-1,2,4-thiadiazol-5-yl]piperazine] |  | 78 |
| Cc1ccc(Cc2nsc(N3CCN(S(=O)(=O)c4cccc(C(F)(F)F)c4)C(C)C3)n2)cc1 (stereo not drawn) [compound 56, 1-[3-trifluoromethylphenylsulfonyl]-4-[3-(4-methylbenzyl)-1,2,4-thiadiazol-5-yl]-2-methylpiperazine] |  | 87 |
| O=C(Cc1ccccc1)N1CCN(c2nc(Cc3ccc(F)cc3)ns2)CC1 [compound 1, 4-phenylacetyl-1-[3-(4-fluorobenzyl)-1,2,4-thiadiazol-5-yl]piperazine] | 0.15 | 75 |
| CC1CN(c2nc(Cc3ccc(F)cc3)ns2)CCN1C(=O)c1ccccc1 (stereo not drawn) [compound 126, 1-benzoyl-4-[3-(4-fluorobenzyl)-1,2,4-thiadiazol-5-yl]-2-methylpiperazine] | 0.21 | 63 |
| O=C(Cc1ccc(F)cc1)NCCN1CCN(c2nc(Cc3ccc(F)cc3)ns2)CC1 [compound 107, 2-(4-fluorophenyl)-N-{2-[4-[3-(4-fluorobenzyl)-1,2,4-thiadiazol-5-yl]piperazin-1-yl]ethyl}acetamide] | 0.26 | 80 |
| CCc1ccc(C(=O)N2CCN(c3nc(Cc4ccc(Cl)cc4)ns3)CC2)cc1 [compound 165, 1-(4-ethylbenzoyl)-4-[3-(4-chlorobenzyl)-1,2,4-thiadiazol-5-yl]piperazine] |  | 133 |
| COc1cccc(Cc2nsc(N3CCN(C(=O)c4ccc(C)cc4)C(C)C3)n2)c1 (stereo not drawn) [compound 124, 1-(4-methylbenzoyl)-4-[3-(3-methoxybenzyl)-1,2,4-thiadiazol-5-yl]-2-methylpiperazine] | 0.14 | 57 |
| Cc1ccccc1NC(=O)N1CCN(c2nc(Cc3ccc(F)cc3)ns2)CC1C (stereo not drawn) [compound 10, N-(2-methylphenyl)-4-[3-(4-fluorobenzyl)-1,2,4-thiadiazol-5-yl]-2-methylpiperazine-1-carboxamide] | 0.6 | 72 |
| CC1CN(c2nc(Cc3ccc(F)cc3)ns2)CCN1C(=O)Cc1ccccc1 (stereo not drawn) [compound 5, 1-phenylacetyl-4-[3-(4-fluorobenzyl)-1,2,4-thiadiazol-5-yl]-2-methylpiperazine] |  | 83 |
| Cc1ccc(Cc2nsc(N3CCN(S(=O)(=O)c4cccc5ccccc45)CC3)n2)cc1 [compound 35, 1-[1-naphtylsulfonyl]-4-[3-(4-methylbenzyl)-1,2,4-thiadiazol-5-yl]piperazine] | 0.0472 | 47 |
| Cc1ccc(S(=O)(=O)N2CCN(c3nc(Cc4ccc(Cl)cc4)ns3)CC2)cc1 [compound 63, 1-[4-methylphenylsulfonyl]-4-[3-(4-chlorobenzyl)-1,2,4-thiadiazol-5-yl]piperazine] | 0.0807 | 83 |
| O=C(c1ccc(F)cc1)N1CCN(c2nc(Cc3ccc(Cl)cc3)ns2)CC1 [compound 153, 1-(4-fluorobenzoyl)-4-[3-(4-chlorobenzyl)-1,2,4-thiadiazol-5-yl]piperazine] | 1.44 | 53 |
| CC1CN(c2nc(Cc3ccc(Cl)cc3)ns2)CCN1C(=O)c1cccc(F)c1 (stereo not drawn) [compound 125, 1-(3-fluorobenzoyl)-4-[3-(4-chlorobenzyl)-1,2,4-thiadiazol-5-yl]-2-methylpiperazine] | 0.16 | 68 |
| CCCCCCc1ccc(C(=O)N2CCN(c3nc(Cc4ccc(F)cc4)ns3)CC2)cc1 [compound 121, 1-(4-hexylbenzoyl)-4-[3-(4-fluorobenzyl)-1,2,4-thiadiazol-5-yl]piperazine] | 0.12 | 64 |
| COc1cccc(S(=O)(=O)N2CCN(c3nc(Cc4ccc(F)cc4)ns3)CC2)c1 [compound 44, 1-[3-methoxyphenylsulfonyl]-4-[3-(4-fluorobenzyl)-1,2,4-thiadiazol-5-yl]piperazine] | 0.128 | 99 |
| CCCCCc1ccc(C(=O)NCCN2CCN(c3nc(Cc4ccc(F)cc4)ns3)CC2)cc1 [compound 94, 4-pentyl-N-{2-[4-[3-(4-fluorobenzyl)-1,2,4-thiadiazol-5-yl]piperazin-1-yl]ethyl}benzamide] | 0.35 | 90 |
| Fc1ccc(Cc2nsc(N3CCN(Cc4ccccc4)CC3)n2)cc1 [compound 113, 1-benzyl-4-[3-(4-fluorobenzyl)-1,2,4-thiadiazol-5-yl]piperazine] | 1.54 | 65 |
| COc1ccc(NC(=O)N2CCN(c3nc(Cc4ccc(F)cc4)ns3)CC2)c(OC)c1 [compound 27, N-(2,4-dimethoxyphenyl)-4-[3-(4-fluorobenzyl)-1,2,4-thiadiazol-5-yl]piperazine-1-carboxamide] |  | 67 |
| O=S(=O)(c1ccc(F)cc1)N1CCN(c2nc(Cc3ccc(Cl)cc3)ns2)CC1 [compound 33, 1-[4-fluorophenylsulfonyl]-4-[3-(4-chlorobenzyl)-1,2,4-thiadiazol-5-yl]piperazine] | 0.00282 | 53 |
| O=C(Nc1ccccc1)N1CCN(c2nc(Cc3ccc(F)cc3)ns2)CC1 [compound 13, N-phenyl-4-[3-(4-fluorobenzyl)-1,2,4-thiadiazol-5-yl]piperazine-1-carboxamide] | 1.23 | 71 |

From patent US7960556B2, “Thiadiazole derivatives for the treatment of neuro-degenerative diseases” (NV reMYND, priority 2006, dated 2011)
